# “And” between values parts separate entries of the source, which are not always exact repeats. Identical values can stand only once.
# Key:
# [1] = system: four grassy weeds: wild oat, watergrass, green foxtail and crabgrass; experiment: Post-emergence herbicidal activity, grassy weeds (Table III); assay type: in vivo; conditions: 2.24 kg/ha, 2-3 weeks after treatment
# Procedure: (§1) The herbicidal effect was observed by comparing the extent of weed control in test flats treated with the compounds against that occurring in similar non-treated control flats. All were applied at 3.57 lb/A (4 kg/ha) to pre-emergence and post-emergence screening flats. An 80 gal/A (748.3 1/ha) spray volume was utilized. Post-emergence flats were seeded 12 days prior to treatment. Pre-emergence flats were seeded one day prior to treatment. Overhead watering of pre-emergence flats and soil surface watering of post-emergence flats, so as to avoid wetting the foliage, were carried out for the duration of the test.
# (§2) Weed seeds were planted in a flat at a seed depth of 0.5 inch (1.3 cm). Soil for flats was prepared using loam soil fortified with 17-17-17 fertilizer (N-P2 O5 -K2 O on a weight basis) and Captan 80W fungicide. The test weeds were as follows:
# (§3) The spray solutions were prepared by dissolving 240 mg of test compound in 20 ml of acetone containing 1% polyoxyethylene sorbitan monolaurate emulsifier, then adding 20 ml of water to the resulting solution. The spray solutions were applied using a linear spray table. Pre-emergence flats are raised to the level of the post-emergence foliage canopy by setting the flats on a wooden block.
# (§4) The degree of weed control was visually assessed and recorded as percentage control compared to the growth of the same species in an untreated check flat of the same age. The rating scale ranges from 0 to 100%, where 0 equals no effect with plant growth equal to the untreated control, and 100 equals complete kill.
# (§5) Compounds 68 to 145 in Table I were tested generally similarly to Compounds No. 1 to 67 with the following differences: The rate of application was 2 lb/acre (2.24 kg/ha), no 6-day evaluations were made, and the weeds were:
# Four grassy weeds: wild oat, watergrass, green foxtail and crabgrass (Digitaria sanguinalis);
# (§6) Ratings were taken 2-3 weeks after treatment.
# [2] = system: three broadleaf weeds: wild mustard, redroot pigweed and curly dock; experiment: Post-emergence herbicidal activity, broadleaf weeds (Table III); assay type: in vivo, Brassica kaber, Amaranthus retroflexus, Rumex crispus; conditions: 2.24 kg/ha, 2-3 weeks after treatment
# Procedure: as §1, §2, §3, §4, §5
# Three broadleaf weeds: wild mustard, redroot pigweed (Amaranthus retroflexus) and curly dock (Rumex crispus).
# as §6
# [3] = system: three grassy weeds (wild oat, watergrass, foxtail); design: species or system Avena fatua, Echinochloa crusgalli, Setaria viridis; conditions: in vivo
# [4] = system: three broadleaf weeds (morning glory, mustard, velvetleaf); design: species or system Ipomoea purpurea, Brassica kaber, Abutilon theophrasti; conditions: in vivo
# yellow nutsedge [5] = system: yellow nutsedge; design: species or system Cyperus esculentus; conditions: in vivo
# [6] = system: three broadleaf weeds (morning glory, mustard, velvetleaf); design: species or system Ipomoea purpurea, Brassica kaber, Abutilon theophrasti; conditions: in vivo; remark: listed apart in the source
# yellow nutsedge [7] = system: yellow nutsedge; design: species or system Cyperus esculentus; conditions: in vivo; remark: listed apart in the source
SMILES,"% Control, Post-Emergence, GR Avg. [1] [%]","% Control, Post-Emergence, BL Avg. [2] [%]","% Control, Pre-emergence, GR avg. [3] [%]","% Control, Pre-emergence, BL avg. [4] [%]","% Control, Pre-emergence, NS (yellow nutsedge [5]) [%]","% Control, Post-emergence, BL avg. [6]","% Control, Post-emergence, NS (yellow nutsedge [7])"
CCCCN(CC)P(=O)(SCC)N(CC)CC (stereo not drawn) [Compound 138],63,69,,,,,
CCCSP(=O)(N(CCC)CCC)N(C)c1ccc(F)c(F)c1F (stereo not drawn) [Compound 47],,,0,0,0,100% and 98%,0%
CCCN(CCC)P(=O)(SC(C)C)N(C)c1ccccc1 (stereo not drawn) [Compound 120],50,71,,,,,
CCCN(CCC)P(=O)(SC(C)CC)N(C)c1ccccc1 (stereo not drawn) [Compound 122],56,79,,,,,
CCCCSP(=O)(N(CCC)CCC)N(C)c1ccccc1 (stereo not drawn) [Compound 121],59,72,,,,,
CCCSP(=O)(N(CCC)CCC)N(C)c1ccc(F)cc1F (stereo not drawn) [Compound 19],,,0,0,,,0%
CCN(CC)P(=O)(SCc1ccccc1)N(CC)CC [Compound 94],30,70,,,,,
CCCCCCSP(=O)(N(CCCC)CCCC)N(CCCC)CCCC [Compound 134],56,90,,,,,
CCCN(CCC)P(=O)(Sc1ccccc1Br)N(CCC)CCC [Compound 8],,,0,0,0,50% and 55%,0%
CCCCSP(=O)(N(CC)CC)N(CC)CCCC (stereo not drawn) [Compound 141],65,86,,,,,
CCCSP(=O)(N(CCC)CCC)N(C)c1ccc(OC(F)(F)F)c(Cl)c1 (stereo not drawn) [Compound 66],,,0,10,0,90% and 98%,0% and 5%
CCC(C)SP(=O)(N(CC)CC)N(CC)CC (stereo not drawn) [Compound 104],77,87,,,,,
CCN(CC)P(=O)(SC(C)C)N1CCCCCC1 (stereo not drawn) [Compound 101],69,100,,,,,
CCCN(CCC)P(=O)(SCC)N1CCCCC1 (stereo not drawn) [Compound 72],50,86,,,,,
C=CCSP(=O)(N(CCC)CCC)N1CCCCCC1 (stereo not drawn) [Compound 100],63,95,,,,,
CCCC(CC)SP(=O)(N(CC)CC)N(CC)CC (stereo not drawn) [Compound 105],54.5,73,,,,,
CCCSP(=O)(N(CCC)CCC)N1CCCCC1 (stereo not drawn) [Compound 73],55,87,,,,,
CCCCN(CCCC)P(=O)(SC1CCCCC1)N(CCCC)CCCC [Compound 136],50,90,,,,,
CCCCN(CCCC)P(=O)(SCc1ccccc1)N(C)C (stereo not drawn) [Compound 113],48,83,,,,,
CCCCN(CCCC)P(=O)(SC(C)(C)C)N(C)C (stereo not drawn) [Compound 106],65,91,,,,,
CCCCN(CC)P(=O)(SC(C)C)N(CC)CC (stereo not drawn) [Compound 140],68,66,,,,,
CCCSP(=O)(N(CC)CC)N1CCCCCC1 (stereo not drawn) [Compound 92],62,86,,,,,

# Reference: patent publication US5189169A (priority 1991, dated 1993)
